Columns and labels:
Assay type in all cases: in vivo
[1] = system: Bemisia tabaci (Cotton White Fly); assay: Example B1: Activity against Bemisia tabaci (cotton white fly), sprayed cotton leaf discs; settings: foliar, 144 h, application rate of 200 ppm, adult white flies on cotton leaf discs, 6 days after incubation
Method: Example B1: Activity Against Bemisia tabaci (Cotton White Fly)
Cotton leaf discs were placed on agar in 24-well microtiter plates and sprayed with aqueous test solutions prepared from 10′000 ppm DMSO stock solutions. After drying the leaf discs were infested with adult white flies. The samples were checked for mortality 6 days after incubation.

[2] = system: Diabrotica balteata (Corn Root Worm); assay: Example B2: Activity against Diabrotica balteata (corn root worm), sprayed maize sprouts; settings: 96 h, application rate of 200 ppm, L2 larvae on maize sprouts, 4 days after infestation, read-out: effect in at least one of the two categories (mortality or growth inhibition)
Method: Example B2: Activity Against Diabrotica balteata (Corn Root Worm)
Maize sprouts placed onto an agar layer in 24-well microtiter plates were treated with aqueous test solutions prepared from 10′000 ppm DMSO stock solutions by spraying. After drying, the plates were infested with L2 larvae (6 to 10 per well). The samples were assessed for mortality and growth inhibition in comparison to untreated samples 4 days after infestation.

[3] = system: Euschistus heros (Neotropical Brown Stink Bug); assay: Example B3: Activity against Euschistus heros (neotropical brown stink bug), sprayed soybean leaf; settings: 120 h, application rate of 200 ppm, N-2 nymphs on soybean leaf, 5 days after infestation, read-out: effect in at least one of the two categories (mortality or growth inhibition)
Method: Example B3: Activity Against Euschistus heros (Neotropical Brown Stink Bug)
Soybean leaf on agar in 24-well microtiter plates were sprayed with aqueous test solutions prepared from 10′000 ppm DMSO stock solutions. After drying the leaf were infested with N-2 nymphs. The samples were assessed for mortality and growth inhibition in comparison to untreated samples 5 days after infestation.

[4] = system: Plutella xylostella (Diamond Back Moth); assay: Example B5: Activity against Plutella xylostella (diamond back moth), eggs, artificial diet; settings: 192 h, application rate of 200 ppm, 8 days after infestation, read-out: effect in at least one of the two categories (mortality or growth inhibition)
Method: Example B5: Activity Against Plutella xylostella (Diamond Back Moth)
24-well microtiter plates with artificial diet were treated with aqueous test solutions prepared from 10′000 ppm DMSO stock solutions by pipetting. After drying, Plutella eggs were pipetted through a plastic stencil onto a gel blotting paper and the plate was closed with it. The samples were assessed for mortality and growth inhibition in comparison to untreated samples 8 days after infestation.

[5] = system: Myzus persicae (Green Peach Aphid); assay: Example B6: Activity against Myzus persicae (green peach aphid), sprayed sunflower leaf discs; settings: foliar, 144 h, application rate of 200 ppm, aphid population of mixed ages on sunflower leaf discs, 6 days after infestation
Method: Example B6: Activity Against Myzus persicae (Green Peach Aphid)
(§1) Sunflower leaf discs were placed on agar in a 24-well microtiter plate and sprayed with aqueous test solutions prepared from 10′000 ppm DMSO stock solutions. After drying, the leaf discs were infested with an aphid population of mixed ages. The samples were assessed for mortality 6 days after infestation.

[6] = system: Spodoptera littoralis (Egyptian Cotton Leaf Worm); assay: Example B9: Activity against Spodoptera littoralis (Egyptian cotton leaf worm), sprayed cotton leaf discs; settings: foliar, 72 h, application rate of 200 ppm, L1 larvae on cotton leaf discs, 3 days after infestation
Method: Example B9: Activity Against Spodoptera littoralis (Egyptian Cotton Leaf Worm)
Cotton leaf discs were placed onto agar in 24-well microtiter plates and sprayed with aqueous test solutions prepared from 10′000 ppm DMSO stock solutions. After drying the leaf discs were infested with five L1 larvae. The samples were assessed for mortality, anti-feeding effect, and growth inhibition in comparison to untreated samples 3 days after infestation. Control of Spodoptera littoralis by a test sample is given when at least one of the categories mortality, anti-feedant effect, and growth inhibition is higher than the untreated sample.

[7] = system: Tetranychus urticae (Two-Spotted Spider Mite); assay: Example B10: Activity against Tetranychus urticae (two-spotted spider mite), sprayed bean leaf discs; settings: foliar, 192 h, application rate of 200 ppm, mixed population (mobile stages) on bean leaf discs, 8 days after infestation
Method: Example B10: Activity Against Tetranychus urticae (Two-Spotted Spider Mite)
Bean leaf discs on agar in 24-well microtiter plates were sprayed with aqueous test solutions prepared from 10′000 ppm DMSO stock solutions. After drying the leaf discs were infested with a mite population of mixed ages. The samples were assessed for mortality on mixed population (mobile stages) 8 days after infestation.

[8] = system: Nilaparvata lugens (Brown Plant Hopper); assay: Example B11: Activity against Nilaparvata lugens (brown plant hopper), larvicide, feeding/contact; settings: 168 h, application rate of 50 ppm, N3 nymphs on sprayed rice plants, 7 days after the treatment
Method: Example B11: Activity Against Nilaparvata lugens (Brown Plant Hopper) Larvicide, Feeding/Contact
Rice plants were treated with the diluted test solutions in a spray chamber. After drying plants were infested with ˜20 N3 nymphs. 7 days after the treatment samples were assessed for mortality and growth regulation.

[9] = system: Nilaparvata lugens (Brown Plant Hopper); assay: Example B12: Activity against Nilaparvata lugens (brown plant hopper), larvicide, systemic into water; settings: 168 h, application rate of 12.5 ppm, systemic into nutritive solution, rice plants, N3 nymphs, 7 days after infestation
Method: Example B12: Activity Against Nilaparvata lugens (Brown Plant Hopper) Larvicide, Systemic into Water
Rice plants cultivated in a nutritive solution were treated with the diluted test solutions into nourishing cultivation system. 1 day after application plants were infested with ˜20 N3 nymphs. 7 days after infestation samples were assessed for mortality and growth regulation.

[10] = system: Frankliniella occidentalis (Western Flower Thrips); assay: Example B4: Activity against Frankliniella occidentalis (western flower thrips), sprayed sunflower leaf discs; settings: foliar, 168 h, application rate of 200 ppm, population of mixed ages on sunflower leaf discs, 7 days after infestation
Method: Example B4: Activity Against Frankliniella occidentalis (Western Flower Thrips)
as §1, with “in” for “in a”, “plates” for “plate”, “[…]” for “10′000 ppm”, “drying” for “drying,”, “a Frankliniella” for “an aphid”, “7” for “6”

[11] = system: Plutella xylostella (Diamond Back Moth); assay: Example B8: Activity against Plutella xylostella (diamond back moth), L2 larvae, artificial diet; settings: 120 h, application rate of 200 ppm, 5 days after infestation, read-out: effect in at least one of the two categories (mortality or growth inhibition)
Method: Example B8: Activity Against Plutella xylostella (Diamond Back Moth)
24-well microtiter plates with artificial diet were treated with aqueous test solutions prepared from 10′000 ppm DMSO stock solutions by pipetting. After drying, the plates were infested with L2 larvae (10 to 15 per well). The samples were assessed for mortality and growth inhibition in comparison to untreated samples 5 days after infestation.

Cn1c(-c2ncc(OC(C)(C)C#N)cc2S(=O)(=O)CC2CC2)nc2cc(C(F)(F)F)nnc21 [Compound P1, 2-[[5-(cyclopropylmethylsulfonyl)-6-[7-methyl-3-(trifluoromethyl)imidazo[4,5-c]pyridazin-6-yl]-3-pyridyl]oxy]-2-methyl-propanenitrile]
≥ 80%: mortality at 200 ppm [1] | percent effect (mortality or growth inhibition) at 200 ppm [2] | percent effect (mortality or growth inhibition) at 200 ppm [3] | percent effect (mortality or growth inhibition) at 200 ppm [4] | mortality at 200 ppm [5] | percent control (mortality, anti-feedant effect or growth inhibition) at 200 ppm [6] | mortality at 200 ppm [7] | mortality at 50 ppm [8] | mortality at 12.5 ppm [9]

CCS(=O)(=O)c1cc(OC(C)(C)C#N)cnc1-c1nc2cc(C(F)(F)F)cnc2n1C [Compound P3, 2-[[5-ethylsulfonyl-6-[3-methyl-6-(trifluoromethyl)imidazo[4,5-b]pyridin-2-yl]-3-pyridyl]oxy]-2-methyl-propanenitrile]
≥ 80%: mortality at 200 ppm [1] | percent effect (mortality or growth inhibition) at 200 ppm [2] | percent effect (mortality or growth inhibition) at 200 ppm [3] | mortality at 200 ppm [10] | percent effect (mortality or growth inhibition) at 200 ppm [4] | mortality at 200 ppm [5] | percent control (mortality, anti-feedant effect or growth inhibition) at 200 ppm [6]

CCn1c(C(F)(F)F)cc2nc(-c3ncc(OC(C)(C)C#N)cc3S(=O)(=O)CC)n(C)c2c1=O [Compound P6, 2-[[6-[5-ethyl-3-methyl-4-oxo-6-(trifluoromethyl)imidazo[4,5-c]pyridin-2-yl]-5-ethylsulfonyl-3-pyridyl]oxy]-2-methyl-propanenitrile]
≥ 80%: mortality at 200 ppm [1] | percent effect (mortality or growth inhibition) at 200 ppm [2] | percent effect (mortality or growth inhibition) at 200 ppm [3] | mortality at 200 ppm [10] | mortality at 200 ppm [5] | percent effect (mortality or growth inhibition) at 200 ppm [11] | percent control (mortality, anti-feedant effect or growth inhibition) at 200 ppm [6]

CCS(=O)(=O)c1cc(OC(C)(C)C#N)cnc1-c1nc2cc(C(F)(F)F)n(C3CC3)c(=O)c2n1C [Compound P7, 2-[[6-[5-cyclopropyl-3-methyl-4-oxo-6-(trifluoromethyl)imidazo[4,5-c]pyridin-2-yl]-5-ethylsulfonyl-3-pyridyl]oxy]-2-methyl-propanenitrile]
≥ 80%: percent effect (mortality or growth inhibition) at 200 ppm [2] | percent effect (mortality or growth inhibition) at 200 ppm [3] | mortality at 200 ppm [10] | percent effect (mortality or growth inhibition) at 200 ppm [11] | percent control (mortality, anti-feedant effect or growth inhibition) at 200 ppm [6]

CCS(=O)(=O)c1cc(OC(C)(C)C#N)cnc1-c1cn2ccc(C(F)(F)F)cc2n1 [Compound P8, 2-[[5-ethylsulfonyl-6-[7-(trifluoromethyl)imidazo[1,2-a]pyridin-2-yl]-3-pyridyl]oxy]-2-methyl-propanenitrile]
≥ 80%: percent effect (mortality or growth inhibition) at 200 ppm [2] | percent effect (mortality or growth inhibition) at 200 ppm [3] | mortality at 200 ppm [10] | mortality at 200 ppm [5] | percent effect (mortality or growth inhibition) at 200 ppm [11] | percent control (mortality, anti-feedant effect or growth inhibition) at 200 ppm [6] | mortality at 200 ppm [7]

CCS(=O)(=O)c1cc(OC(C)(C)C#N)cnc1-c1cn2ncc(C(F)(F)F)cc2n1 [Compound P9, 2-[[5-ethylsulfonyl-6-[7-(trifluoromethyl)imidazo[1,2-b]pyridazin-2-yl]-3-pyridyl]oxy]-2-methyl-propanenitrile]
≥ 80%: mortality at 200 ppm [1] | percent effect (mortality or growth inhibition) at 200 ppm [2] | mortality at 200 ppm [10] | mortality at 200 ppm [5] | percent effect (mortality or growth inhibition) at 200 ppm [11] | percent control (mortality, anti-feedant effect or growth inhibition) at 200 ppm [6] | mortality at 50 ppm [8] | mortality at 12.5 ppm [9]

CCS(=O)(=O)c1cc(OC(C)(C)C#N)ccc1-n1cc2cnc(C(F)(F)F)cc2n1 [Compound P10, 2-[3-ethylsulfonyl-4-[6-(trifluoromethyl)pyrazolo[4,3-c]pyridin-2-yl]phenoxy]-2-methyl-propanenitrile]
≥ 80%: mortality at 200 ppm [1] | percent effect (mortality or growth inhibition) at 200 ppm [2] | percent effect (mortality or growth inhibition) at 200 ppm [3] | mortality at 200 ppm [10] | mortality at 200 ppm [5] | percent effect (mortality or growth inhibition) at 200 ppm [11] | percent control (mortality, anti-feedant effect or growth inhibition) at 200 ppm [6] | mortality at 200 ppm [7] | mortality at 50 ppm [8] | mortality at 12.5 ppm [9]

CCS(=O)(=O)c1cc(OC(C)(C)C#N)ccc1-c1nc2cc(C(F)(F)F)nnc2n1C [Compound P12, 2-[3-ethylsulfonyl-4-[7-methyl-3-(trifluoromethyl)imidazo[4,5-c]pyridazin-6-yl]phenoxy]-2-methyl-propanenitrile]
≥ 80%: mortality at 200 ppm [1] | percent effect (mortality or growth inhibition) at 200 ppm [2] | percent effect (mortality or growth inhibition) at 200 ppm [3] | mortality at 200 ppm [10] | mortality at 200 ppm [5] | percent effect (mortality or growth inhibition) at 200 ppm [11] | percent control (mortality, anti-feedant effect or growth inhibition) at 200 ppm [6]

CCS(=O)(=O)c1cc(OC(C)(C)C#N)cnc1-c1nc2cc(SC(F)(F)F)ccc2n1C [Compound P13, 2-[[5-ethylsulfonyl-6-[1-methyl-5-(trifluoromethylsulfanyl)benzimidazol-2-yl]-3-pyridyl]oxy]-2-methyl-propanenitrile]
≥ 80%: mortality at 200 ppm [1] | percent effect (mortality or growth inhibition) at 200 ppm [2] | percent effect (mortality or growth inhibition) at 200 ppm [3] | mortality at 200 ppm [10] | percent effect (mortality or growth inhibition) at 200 ppm [4] | mortality at 200 ppm [5] | percent control (mortality, anti-feedant effect or growth inhibition) at 200 ppm [6]

CCS(=O)(=O)c1cc(OC(C)(C)C#N)cnc1-c1nc2cc(S(=O)(=O)C(F)(F)F)ccc2n1C [Compound P14, 2-[[5-ethylsulfonyl-6-[1-methyl-5-(trifluoromethylsulfonyl)benzimidazol-2-yl]-3-pyridyl]oxy]-2-methyl-propanenitrile]
≥ 80%: mortality at 200 ppm [1] | percent effect (mortality or growth inhibition) at 200 ppm [2] | percent effect (mortality or growth inhibition) at 200 ppm [3] | mortality at 200 ppm [10] | percent effect (mortality or growth inhibition) at 200 ppm [4] | mortality at 200 ppm [5] | percent control (mortality, anti-feedant effect or growth inhibition) at 200 ppm [6]
